Measurements published in US8623912B2, “Fostriecin derivatives and the pharmaceutical uses thereof” (priority 2008, dated 2014).
pIC50: −log10 of the molar value. Read-outs that look alike come from different tables or passages of the source.

Legend:
[1] = tested on: NCI-H460 (human Lung Cancer); assay: Celltiter 96 cell proliferation assay (modified MTT method), NCI-H460; assay type: cell-based; conditions: read-out: IC50 NCI-H460 (human Lung Cancer)
Method: (§1) The anti-tumor activities of the compounds of thiophosphorylated FST (A) and methyl phosphorylated FST (B) of the present invention to various tumor cell lines of HL-60, CCRD-CEM and NCI-H460 were determined by Celltiter 96 cell proliferation assay kit (modified MTT method) manufactured by Promega company. Onto a 96-well plate, total volume 50 ul/well was added with about 5-7.5×10^3 cells/well, and cultured for 24 hours, followed by addition of 50 ul of the compounds (0.001 nM˜1000 nM) to each well, and cultured for 72 hours. Subsequently, 15 ul of MTT staining solution was added to the well, temperature was kept for 4 hours, the thus formed precipitate was then dissolved with 100 ul lysis buffe/stop solution. After 1 hour, the content in the well was mixed homogeneously with a shaker, and the abosorption value (OD 570 nm) of each well was measured by enzyme-labeled instrument (Molecular Devices). The data was analyzed with Kaleida Graph Program, and the IC50 value (the concentration of the compound at which the growth of 50% of the cell is inhibited) was calculated.

HL60 (human leukemia) = assay: Celltiter 96 cell proliferation assay (modified MTT method), HL60; assay type: cell-based; conditions: read-out: IC50 HL60 (human leukemia)
Method: as §1

[2] = tested on: CCRF-CEM (human leukemia); assay: Celltiter 96 cell proliferation assay (modified MTT method), CCRF-CEM; assay type: cell-based; conditions: read-out: IC50 CCRF-CEM (human leukemia)
Method: as §1

alkaline phosphatase = assay type: in vitro ADME; conditions: FIG. 2; for stability under the action of alkaline phosphatase: 75 mM Tris Buffer pH 8.3, 5 mM MgCl2, 37° C., 2-5 hours; for formation of dephosphorylated FST under alkaline phosphatase: conditions of Example 1
Method: Reaction condidtions: FST was dissolved in a solution of 75 mM Tris Buffer (pH 8.3) and 5 mM MgCl2 to obtain a 20 mM FST solution, to each milligram of Fostriecin was added 1 to 1.5 units of alkaline phosphatase, enzymolysis was performed at 37° C. for 2-5 hours.
Thiophosphorylated FST(A) and methyl phosphorylated FST(B) were subjected to hydrolysis of alkaline phosphatase under the reaction condidtions as described in Example 1.

PP4 = target: T1, PP4 (Homo sapiens, UniProt P60510); conditions: cited from earlier work
T1 sequence (P60510 1-307): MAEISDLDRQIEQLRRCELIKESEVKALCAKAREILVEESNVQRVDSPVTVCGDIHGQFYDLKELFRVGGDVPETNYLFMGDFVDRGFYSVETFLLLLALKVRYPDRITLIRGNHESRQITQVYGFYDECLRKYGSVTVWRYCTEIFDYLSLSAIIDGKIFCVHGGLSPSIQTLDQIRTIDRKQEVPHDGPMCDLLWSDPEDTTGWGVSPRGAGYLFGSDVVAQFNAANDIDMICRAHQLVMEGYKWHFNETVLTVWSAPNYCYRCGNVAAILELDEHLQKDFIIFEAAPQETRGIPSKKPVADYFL

protein phophatase PP2A = protein phophatase PP2A (Homo sapiens, UniProt P67775); conditions: cited from earlier work
[3] = NCI-H460, 72 hours culture with compound, MTT, OD 570 nm
[4] = HL-60, 72 hours culture with compound, MTT, OD 570 nm
[5] = 72 hours culture with compound, MTT, OD 570 nm

Sequence of protein phophatase PP2A (P67775 whole entry): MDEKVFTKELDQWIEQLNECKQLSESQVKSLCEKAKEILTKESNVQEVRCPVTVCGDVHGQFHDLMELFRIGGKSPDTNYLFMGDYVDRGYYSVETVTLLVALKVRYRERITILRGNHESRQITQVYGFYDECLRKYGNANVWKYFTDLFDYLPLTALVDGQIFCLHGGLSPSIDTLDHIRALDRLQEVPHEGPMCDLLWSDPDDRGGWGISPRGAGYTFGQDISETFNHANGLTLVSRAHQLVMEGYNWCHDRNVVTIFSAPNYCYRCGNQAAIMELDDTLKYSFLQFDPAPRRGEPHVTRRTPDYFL

Row | SMILES | pIC50 [1, 3] | pIC50 (HL60 (human leukemia); [4]) | pIC50 [2, 5] | stability under the action of alkaline phosphatase (alkaline phosphatase) | formation of dephosphorylated FST under alkaline phosphatase (alkaline phosphatase) | pIC50 (PP4) | pIC50 (protein phophatase PP2A) | pIC50 ([1]; NCI-H460, 72 h) | pIC50 (HL60 (human leukemia); HL-60, 72 h) | pIC50 ([2]; 72 h)
1 | C[C@@](O)(/C=C/[C@H]1CC=CC(=O)O1)C(C[C@@H](O)\C=C/C=C\C=C\CO)OCP(=O)(O)O (stereo partly drawn) [B] | 4.79 | 4.90 | 4.85 | relatively stable | no dephosphorylated FST was formed |  |  |  |  | 
2 | CC(O)(C=CC1CC=CC(=O)O1)C(CC(O)C=CC=CC=CCO)OP(=O)(O)O (stereo not drawn) [FST, Fostriecin] | 4.84 | 4.92 | 5.00 |  |  | 8.52 | 8.82 |  |  | 
3 | C[C@@](O)(/C=C/C1CC=CC(=O)O1)C(C[C@@H](O)\C=C/C=C\C=C\CO)OP(O)(O)=S (stereo partly drawn) [A] |  |  |  | relatively stable | no dephosphorylated FST was formed |  |  | 4.88 | 4.98 | 5.02
